Measurements published in US11065249B2, “Diacylglycerol acyl transferase 2 inhibitor” (Pfizer Inc., priority 2019, dated 2021).
Values after ≈ are worked out from the molar mass of the structure shown.

How the values were obtained:
[1] = High throughput determination of intrinsic clearance in human hepatocytes; type: in vitro ADME; settings: human, pooled cryopreserved human hepatocytes (suspension), high throughput human hepatocyte assay, 1 μM test compound; mean +/− Std Dev
Experimental: The incubation was carried out at 37° C. […] The samples were centrifuged (Eppendorf, Hauppauge, N.Y.) at 3000 rpm for 5 min at 4° C.

[2] = Determination of pKa (capillary electrophoresis, Analiza); type: physicochemical; settings: most basic pKa, mean
[3] = system: Western diet fed Sprague-Dawley rats; test: Rat western diet model: in vivo effects on plasma and hepatic triglyceride levels; settings: oral twice daily 3-100 mg/kg, compared with chow-fed vehicle animals
Text: The rat western diet model was utilized to assess the effects of DGAT2 inhibitor treatment on plasma triglyceride production and hepatic triglyceride content in vivo. Male Sprague-Dawley rats were housed under standard laboratory conditions on a 12-hour light, 12-hour dark cycle (lights on at 06:00). Two weeks prior to study start animals were placed on a high-fat, high sucrose, high-cholesterol diet (D12079b, provided by Research Diets, New Brunswick, N.J.). This diet provides ˜43% of kilocalories from carbohydrate and ˜41% of kilocalories from fat. Example 4 was administered orally as a solution (10 mL/kg dosing volume) in 0.5% methylcellulose in deionized water, pH 7.0-7.5 (methylcellulose was obtained from Sigma-Aldrich, St. Louis, Mo.). […] Plasma TG levels were determined using a Roche Hitachi Chemistry analyzer according to the manufacturer's instructions (Roche Diagnostics Corporation, Indianapolis, Ind.) and data was analyzed using GraphPad Prism (GraphPad Software, Inc., La Jolla, Calif.). […] The triglyceride assay was performed through absorbance and reported as milligrams per deciliter. […]
FIG. 4 plots the multiple dose effects of Example 4 on Plasma Triglyceride in Western Diet Fed Sprague-Dawley Rats where plasma triglyceride levels were determined from blood drawn from the lateral tail vein 2-hours following the final dose of Example 4. […]

[4] = Intrinsic clearance in human hepatocytes (relay method); type: in vitro ADME; settings: cryopreserved human hepatocytes (suspension), relay hepatocyte assay, 1 μM test compound, mean +/− Std Dev
Experimental: Cryopreserved human hepatocytes (Lot DCM from BioreclamationIVT) were used. […] At time 0 and 4 h, 25 μL of hepatocyte suspension was removed from the incubation and added to 50 μL of ice-cold acetonitrile (containing metoprolol, indomethacin, and terfenadine as internal standards) to quench the reaction. The samples were centrifuged (Eppendorf, Hauppauge, N.Y.) at 3000 rpm (1439×g) for 10 min at room temperature, and 50 μL of supernatant was transferred to a clean plate, dried completely, and reconstituted before liquid chromatography/tandem mass spectrometry (LC-MS/MS) analysis. The remaining hepatocyte suspensions in the incubation plate were centrifuged (3000 rpm, 1439×g, 10 min, room temperature). The supernatant of 300 μL was transferred to a clean 24-well plate and stored at −80° C. until the next relay experiment. For the second relay experiment, the supernatant plates were warmed first to room temperature for 30 minutes, then to 37° C. for 30 min, and hepatocytes were added to the samples to give a final cell density of 0.5 million cells/mL. The plates were incubated at 37° C. for 4 h, sampled, and processed as described above. Five relays were performed to give a total incubation time of 20 h, with sampling points at (0, 4, 8, 12, 16 and 20 h). The concentrations of test compound determined at each time point by the LC-MS/MS analysis were used to calculate the intrinsic clearance.

[5] = Thermodynamic solubility in various biorelevant media (PBS, SGN, FaSSIF, FeSSIF); type: physicochemical; settings: 25 °C, thermodynamic from solid
Experimental: The solubility of active pharmaceutical ingredients is an important characteristic in determining biological performance and ease of formulation during drug development, with high solubility being preferred (Klein, S. 2010, The AAPS Journal, 12, 397-406; Di, L., et al 2012, Drug Disc. Today, 17.486-495). A test sample of crystalline solid (˜7 mg) was combined in a vial with 1 mL of the relevant buffer solution and the mixture vortexed to combine. If the solid dissolved completely, additional solid was added with vortexing until a saturated solution was obtained. The saturated solution/solid mixture was capped and subjected to temperature cycling as follows: 1 min at 25° C.; 8 h at 40° C.; 5 h at 15° C. and 12 h at 25° C. The mixture was filtered in a centrifugal filtration device (0.22 μm PVDF filter, MilliporeSigma, Milwaukee, Wis.) at 13,000 rpm and the concentration of the test compound in the filtrate was determined by HPLC/UPLC with reference to a three point standard curve. Phosphate buffered saline (PBS, pH 6.8, 50 mM phosphate buffer, 250 mM NaCl). Simulated gastric fluid (SGN pH 1.2, USP recipe). Fasted state simulated intestinal fluid (FaSSIF, 3 mM sodium taurocholate, 0.75 mM phospholipid from soybean lecithin, 50 mM phosphate buffer, ionic strength adjusted to 250 mM with NaCl, pH 6.8) and fed state simulated intestinal fluid (FeSSIF, 15 mM sodium taurocholate, 3.75 mM phospholipid from soybean lecithin, 144 mM acetic acid, 50 mM phosphate buffer, ionic strength adjusted to 250 mM with NaCl, pH 6.8).

[6] = Intrinsic clearance in human liver microsomes; type: in vitro ADME; settings: human, pooled human liver microsomes, pH 7.4, human liver microsome assay, 1 μM test compound; mean +/− STD Dev
Experimental: The incubations were conducted at 37° C. […] (Sorvall R C 3C Plus, Thermo Scientific, Waltham, Mass.).

Q: Which results are given for `CCOc1cccnc1Oc1cncc(-c2ncc(C(=O)N[C@@H]3CNC[C@@H](F)C3)cn2)c1` [Example 4, 2-{5-[(3-Ethoxypyridin-2-yl)oxy]pyridin-3-yl}-N-[(3S,5S)-5-fluoropiperidin-3-yl]pyrimidine-5-carboxamide]?
A: hepatocyte CLint at 1 μM [1]: < 1.8 µL/min/1e6 cells; pKa [2]: 7.5; circulating triglyceride response, resulting levels [3]: approached those of the chow-fed vehicle animals; hepatocyte CLint at 1 μM [4]: 0.98 µL/min/1e6 cells; solubility at 25 h ([5]; fasted state simulated intestinal fluid (FaSSIF), FaSSIF pH 6.8): 955 µg/mL (≈ 2180 µM); solubility at 25 h ([5]; phosphate buffered saline, aqueous buffer, PBS, pH 6.8): 580 µg/mL (≈ 1320 µM); solubility at 25 h ([5]; simulated gastric fluid, SGN pH 1.2): > 27000 µg/mL; microsomal CLint at 1 μM [6]: < 7 µL/min/mg
